Experimental findings from patent US12071488B2, “Method of sensitizing cancer cells to anti-cancer treatment” (TWO TO BIOTECH LTD., priority 2017, dated 2024) are described below.

The test system of one test is HER2. Put plainly: HER2 immunohistochemistry of MDA-MB-231 tumor sections from nude mice. Particulars: mice with MDA-MB-231 tumors; APC1 350 μg per mouse, three times per week, two weeks; vs saline. The format is in vivo, Balb/C Nude mice. How it is done: MDA-MB-231 cells were grown in DMEM medium with Hepes (Gibco 41965-039) containing 10% heat inactivated Fetal Bovine Serum (Biological industries, #04-121-1A) and 1% Pen-Strep antibiotic (Biological industries, 03-031-1B) inside a 175 cm^2 flask (Nunc 178883). The cells were incubated at 37° C. in the presence of 5% CO2 and 95% humidity. The other cancer cells injected into mice (namely OV90 and Panc1) were prepared in a similar manner.
When a sufficient number of cells were present, the cells were centrifuged at 300 g for 5 minutes. The supernatant was discarded and 5-10 ml PBS (Biological Industries, #02-023-5A) was added to the cell pellet in order to wash the remaining medium. The cells were centrifuged again (same speed and time), the supernatant was discarded and 5-10 ml Saline was added to the cells. At this stage the cells were counted under a light microscope using a Hemocytometer, and saline was accordingly added to reach a concentration of 8×10^6 cells/200 μl.
Female Balb/C Nude mice (as detailed above) were retained in the Inventor's animal facility for at least 24 hours. Next all mice were intraperitoneally injected with 8×10^6 cells (in 200 μl saline) using a 27 G needle.
APC1 peptide was diluted in saline to the appropriate concentration in order to inject a dose of 350 μg/mouse. After the tumors reached the size of 0.5 cm×0.5 cm (usually 5 days) treatment of mice began. […]

For test [1], the system named is MDA-MB-468 cells. The experiment in a line: Analysis of apoptosis in MDA-MB-468 cells with APC1 and Herceptin. The format is cell-based, human. To be noted: Herceptin 12 μg/ml, APC1 250 μg/ml (FIG. 9). The text has this:
Cells were examined for apoptosis or HER2 expression using FACS analysis. The HER2 antibody used was abcam ab16901. The marker Annexin (Enco) was used for assessment of apoptosis.

In another test the test system is estrogen receptor alpha. Put plainly: Western blot analysis of estrogen receptor alpha expression in MDA-MB-231 cells. In kind it is cell-based, human. Particulars: APC1 250 μg/ml once a week for one week or twice a week for 3 or 4 weeks. An excerpt: Abbreviations: M, protein parker; c, control; h, hour; w, week.
In view of the results shown above, the expression level of estrogen receptor alpha was directly assayed.
A general note: Immunoblotting shows a protein as a band on a membrane.

In test [2] the test system is MDA-MB-468 cells. Put plainly: Resazurin cell viability assay with APC1 and cisplatin or doxorubicin, MDA-MB-468 cells. The format is cell-based, human. To be noted: MDA-MB-468 pre-incubated with APC1 250 μg/ml; doxorubicin 0.3, 0.5, 1 μM, 48 hours; concentration dependent. The protocol:
Cells treated with APC1 were seeded with APC1 at 250 μg/ml. The cells were incubated overnight.
Then the media was aspirated from the plates, and 100 μl of the treatment solutions were added to the appropriate wells, each treatment in triplicates. The cells were incubated for 48 hours.

On to “EKGAAFSPIYPRRK (C terminal peptide of KTPAF50) [APC1, polypeptide consisting of the 14 C-terminal amino acid residues of the peptide KTPAF50]”, for which the “HER2 expression on the cell surface of tumor cells (immunohistochemistry)” value in the test with HER2 is on record as “clear HER2 expression”. The same sequence came in with a level of apoptosis in the test with MDA-MB-468 cells [1] of 15%. The “expression level of estrogen receptor alpha” value with estrogen receptor alpha is “clear increase”. For the same sequence, the “sensitivity to doxorubicin (relative cell viability)” value with MDA-MB-468 cells [2] is on record as “increased the sensitivity”.
